The values that follow come from paper PMC7255801, “Disease-associated mutations in the human TRPM3 render the channel overactive via two distinct mechanisms” (eLife, 2020).

This assay has as its target T1, wild-type hTRPM3α2 (Homo sapiens, UniProt Q9HCF6).
T1 construct: host or cells: HEK293
The experiment in a line: Intracellular Ca2+ assay (GCaMP6f) in 96-well plates, HEK293 cells, wild type channel. Type of assay: cell-based. Here is the method: Intracellular Ca^2+ measurements were performed using a Flexstation-3 96‐well plate reader with rapid well injection (Molecular Devices) as described earlier ([Hughes et al., 2019]) with some modifications. Briefly Human Embryonic Kidney 293 (HEK293) cells were purchased from American Type Culture Collection (ATCC), Manassas, VA, (catalogue number CRL-1573), RRID:CVCL_0045; cell identity was verified by STR analysis by ATCC. HEK293 cells were cultured in MEM supplemented with 10% FBS and 100 IU/ml penicillin plus 100 µg/ml streptomycin in 5% CO2 at 37°C. Additional cell authentication was not performed, but passage number of the cells was monitored, and cells were used up to passage number 25–30 from purchase, when a new batch of cells was thawed with low passage number; cells were tested for the lack of mycoplasma infection. HEK293 cells were transfected with hTRPM3α2-GFP, or its mutants (200 ng) and GCaMP6 (1 μg) using the Effectene reagent (Qiagen). […] GCaMP6 signal was measured at excitation wavelengths 485 nm and fluorescence emission was detected at 525 nm. Sampling interval was 0.86 s and four parallel reads were performed for each condition. […] For measurements at 37°C the MEM medium used to culture the cells was replaced with the measurement solution preheated to 37°C, and the plate was placed in the plate reader warmed to 37°C using its built-in temperature controller.

T1 sequence (Q9HCF6 1-1709 isoform Q9HCF6-5): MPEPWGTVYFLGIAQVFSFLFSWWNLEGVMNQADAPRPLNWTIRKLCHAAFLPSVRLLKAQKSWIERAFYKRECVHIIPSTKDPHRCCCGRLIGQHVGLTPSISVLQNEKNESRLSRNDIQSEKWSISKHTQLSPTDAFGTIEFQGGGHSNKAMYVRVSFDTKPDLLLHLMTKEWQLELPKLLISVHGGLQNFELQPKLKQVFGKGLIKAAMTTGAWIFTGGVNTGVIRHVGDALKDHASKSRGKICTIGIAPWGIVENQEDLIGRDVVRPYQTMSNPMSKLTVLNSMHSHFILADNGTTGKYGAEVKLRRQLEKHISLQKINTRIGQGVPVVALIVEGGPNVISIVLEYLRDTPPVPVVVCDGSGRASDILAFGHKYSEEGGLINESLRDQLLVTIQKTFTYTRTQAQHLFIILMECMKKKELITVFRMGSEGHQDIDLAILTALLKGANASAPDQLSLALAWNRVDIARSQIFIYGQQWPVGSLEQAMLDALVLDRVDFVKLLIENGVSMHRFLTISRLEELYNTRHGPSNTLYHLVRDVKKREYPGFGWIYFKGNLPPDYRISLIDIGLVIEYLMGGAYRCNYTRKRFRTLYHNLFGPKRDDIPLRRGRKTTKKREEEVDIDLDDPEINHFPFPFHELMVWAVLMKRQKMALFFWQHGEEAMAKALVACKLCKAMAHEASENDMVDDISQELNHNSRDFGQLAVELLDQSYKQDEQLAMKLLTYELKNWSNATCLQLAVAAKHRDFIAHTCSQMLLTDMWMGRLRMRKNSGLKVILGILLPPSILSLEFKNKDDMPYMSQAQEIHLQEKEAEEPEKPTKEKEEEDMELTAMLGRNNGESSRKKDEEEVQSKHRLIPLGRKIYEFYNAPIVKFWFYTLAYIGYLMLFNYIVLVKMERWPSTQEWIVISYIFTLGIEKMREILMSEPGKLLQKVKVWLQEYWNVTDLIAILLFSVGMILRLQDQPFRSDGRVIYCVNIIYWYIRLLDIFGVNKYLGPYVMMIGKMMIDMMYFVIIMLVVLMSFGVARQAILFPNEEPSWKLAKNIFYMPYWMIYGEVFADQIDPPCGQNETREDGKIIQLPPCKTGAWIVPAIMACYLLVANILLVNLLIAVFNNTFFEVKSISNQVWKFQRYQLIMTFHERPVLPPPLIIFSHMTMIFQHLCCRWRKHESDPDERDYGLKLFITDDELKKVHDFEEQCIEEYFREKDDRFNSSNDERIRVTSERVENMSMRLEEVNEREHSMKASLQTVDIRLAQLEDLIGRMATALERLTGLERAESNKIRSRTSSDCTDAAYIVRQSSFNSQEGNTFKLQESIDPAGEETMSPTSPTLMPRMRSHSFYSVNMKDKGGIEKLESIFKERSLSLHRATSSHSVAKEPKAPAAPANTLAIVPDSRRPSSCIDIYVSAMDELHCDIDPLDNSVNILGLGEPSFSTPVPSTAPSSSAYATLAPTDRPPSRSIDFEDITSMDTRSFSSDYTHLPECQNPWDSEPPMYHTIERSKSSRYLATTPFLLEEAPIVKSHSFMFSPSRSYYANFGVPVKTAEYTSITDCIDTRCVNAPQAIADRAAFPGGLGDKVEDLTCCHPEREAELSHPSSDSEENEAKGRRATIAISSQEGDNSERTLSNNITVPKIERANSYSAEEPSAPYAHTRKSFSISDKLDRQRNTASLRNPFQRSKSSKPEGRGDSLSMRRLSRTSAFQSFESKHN

As for `CCC1(c2ccccc2)C(=O)NCNC1=O` [primidone], the “Effect on basal cytoplasmic Ca2+ levels” value (wild type TRPM3, room temperature (21°C)) is reported as “no effect”. Moreover, the “Effect on basal Ca2+ levels at 37°C” value (wild type channels, 50 μM, 37°C) is reported as “reduced basal Ca^2+ levels”.
